Measured values as given in patent US20250041363A1, “COMPOSITIONS AND METHODS FOR TREATMENT OF ALCOHOL USE DISORDER AND ALCOHOL-ASSOCIATED LIVER DISEASE” (UNIVERSITY OF LOUISVILLE RESEARCH FOUNDATION, INC., priority 2023, published 2025).

Key:
Assay type in all cases: in vivo, human
[1] = system: patients with moderately severe acute alcohol associated hepatitis (mAH, MELD <21) with heavy alcohol drinking; experiment: Double-blind placebo-controlled trial of LGG: alcohol consumption (monthly alcohol use questionnaire); conditions: for #Drinks (Weekly): LGG arm, baseline 34.71 ± 21.99
Excerpt: Conduct a pilot double-blind treatment trial identifying the dual therapeutic role of LGG in patients with comorbid AUD and moderate AH. Evaluate the therapeutic effects of LGG on lowering alcohol consumption over 6 months of treatment compared to placebo. Evaluate the therapeutic outcomes of LGG treatment on liver injury, progression and prognosis compared to placebo. Validate the central role of gut dysfunction in the altered gut-liver and gut-brain response in patients with AUD and moderate AH.
(§1) We analyzed data from 46 participants in a large NIAAA-funded clinical trial performed at 4 medical centers (DASH Consortium). This investigation was a double-blind placebo-controlled study of patients with moderately severe acute alcohol associated hepatitis (mAH, MELD <21) who had pre-existing/ongoing heavy alcohol drinking, with clinical assessments at multiple time points. Data on demographics, drinking, and liver injury were collected and assessed at baseline (BL), 1-month (1-m), 3-months (3-m), and 6-months (6-m). Alcohol consumption was measured by baseline AUDIT, monthly alcohol use questionnaire; and liver injury was assessed by standard liver injury markers. All patients received standard medical management for liver disease and counseling for AUD in the standard of care protocol.

AUD patients = experiment: Pilot study of LGG in AUD patients: heavy drinking markers; conditions: AUD patients treated for 6-months, preliminary results
[2] = system: patients with moderately severe acute alcohol associated hepatitis (mAH, MELD <21) with heavy alcohol drinking; experiment: Double-blind placebo-controlled trial of LGG: liver injury, severity and progression markers; conditions: for INR / ABIC / MELD / Creatinine / Albumin / AST:ALT / Total Bilirubin / ALT / AST: LGG arm; for INR: baseline 1.453 ± 0.35; for ABIC: baseline 6.3 ± 1.26; for MELD: baseline 17.42 ± 1.79; for Creatinine: baseline 0.64 ± 0.17; for Albumin: baseline 2.7 ± 0.6; for AST:ALT: baseline 2.74 ± 1.54; for Total Bilirubin: baseline 7.2 ± 4.5; for ALT: baseline 73.7 ± 46.7; for AST: baseline 169.0 ± 88.4
Excerpt: as §1

Lactobacillus rhamnosus GG [LGG]
drinking level reached (social or abstinence level) ([1]; 6-month assessment, compared to placebo): < 4 drinks/week | change in average drinks/week in LGG arm compared to the placebo arm ([1]; 6-month assessment, p=0.0128): significant drop | heavy drinking levels after treatment ([1]; 6 months of LGG treatment): reduced heavy drinking levels to the social drinking or abstinence levels | #Drinks (Weekly) ([1]; 1 month, n = 23): 1.81 ± 3.77 | #Drinks (Weekly) ([1]; 3 month, n = 18): 2.83 ± 7.71 | #Drinks (Weekly) ([1]; 6 month, n = 16): 0.31 ± 1.01 | lowering of alcohol consumption (average drinking/week) over 6 months within group ([1]; over 6 months, p≤0.001 in the LGG group): significant, with higher significance | patients with reduction of alcohol drinks/week to the level of social drinking criteria ([1]; vs four of the 22 placebo, Fisher's exact test p=0.0012, Likelihood ratio=9.0): sixteen of the 24 | heavy drinking markers (AUD patients): reduction of heavy drinking markers | 1 month change in MELD, LGG arm compared to the placebo arm ([2]; 1 month, FIG. 2A): significantly dropped | 1 month change in ABIC score ([2]; 1 month, FIG. 2C, p=0.005): dropped significantly | drop in the AST:ALT ratio, LGG arm compared to the placebo arm ([2]; FIG. 2B): significant | INR ([2]; 1 month, n = 17): 1.32 ± 0.3 Unit Score | ABIC ([2]; 1 month, n = 17): 5.84 ± 1.2 Unit Score | MELD ([2]; 1 month, n = 17): 13.29 ± 4.34 Unit score | Creatinine ([2]; 1 month, n = 18): .81 ± 0.5 mg/dL | Albumin ([2]; 1 month, n = 18): 3.5 ± 0.8 g/dL | AST:ALT ([2]; 1 month, n = 18): 1.99 ± 1.2 | Total Bilirubin ([2]; 1 month, n = 18): 2.54 ± 1.4 mg/dL | ALT ([2]; 1 month, n = 18): 43.6 ± 44.9 U/L | AST ([2]; 1 month, n = 18): 71.72 ± 59.9 U/L | Creatinine ([2]; 3 month, n = 17): 0.90 ± 0.4 mg/dL | INR ([2]; 3 month, n = 17): 1.31 ± 0.45 Unit Score | Albumin ([2]; 3 month, n = 17): 3.6 ± 0.9 g/dL | AST:ALT ([2]; 3 month, n = 17): 1.7 ± 0.82 | ABIC ([2]; 3 month, n = 17): 5.98 ± 1.5 Unit Score | Total Bilirubin ([2]; 3 month, n = 17): 3.82 ± 8.3 mg/dL | MELD ([2]; 3 month, n = 17): 12.06 ± 7.73 Unit score | ALT ([2]; 3 month, n = 17): 33.39 ± 36.27 U/L | AST ([2]; 3 month, n = 17): 58.65 ± 51.9 U/L | Total Bilirubin ([2]; 6 month, n = 15): 2.8 ± 3.84 mg/dL | MELD ([2]; 6 month, n = 15): 12.40 ± 8.4 Unit score | Creatinine ([2]; 6 month, n = 16): 0.88 ± 0.35 mg/dL | INR ([2]; 6 month, n = 16): 1.41 ± 0.69 Unit Score | Albumin ([2]; 6 month, n = 16): 4.01 ± 0.94 g/dL | AST:ALT ([2]; 6 month, n = 16): 1.65 ± 0.97 | ABIC ([2]; 6 month, n = 16): 6.08 ± 1.46 Unit Score | ALT ([2]; 6 month, n = 16): 38.75 ± 32.48 U/L | AST ([2]; 6 month, n = 16): 48.75 ± 25.20 U/L | biomarkers of liver injury progression and severity ([2]; LGG treatment, summary): significant reduction
